Reference: US20250313546A1, “NUCLEIC ACID BINDERS” (UNIVERSITY OF STRATHCLYDE, priority 2022, published 2025)
Converted amounts (≈) assume the structure as drawn. Like-named read-outs stand apart in the source and are kept apart here.

How the values were obtained:
[1] = tested on: Staphylococcus aureus (ATCC 43300); experiment: Antibacterial MIC, broth microdilution (CLSI); type: cell-based; conditions: for MIC80: Staphylococcus aureus, ATCC43300, read-out: MIC80 S. aureus; for S. aureus Selectivity Indices, Group / S. aureus Selectivity Index (SI): SI, IC50 (μM)/MIC80 (μM), HEK293 cytotoxicity; for S. aureus Selectivity Index (SI): numeric value
[2] = tested on: Enterococcus faecalis (ATCC 51299); experiment: Antibacterial MIC, broth microdilution (CLSI); type: cell-based; conditions: for MIC80: Enterococcus faecalis, ATCC51299, read-out: MIC80 E. faecalis
[3] = tested on: Escherichia coli (ATCC 25922); experiment: Antibacterial MIC, broth microdilution (CLSI); type: cell-based; conditions: Escherichia coli, ATCC25922; read-out: MIC80 E. coli
[4] = tested on: T. vaginalis; experiment: Trichomonas resorufin assay; type: cell-based; conditions: for IC50: Trichomonas vaginalis, read-out: IC50 T. vaginalis
[5] = tested on: Genomic double stranded DNA (salmon); experiment: Fluorescence intercalator displacement (FID) assay, SYBR-safe probe; conditions: 20 μM compound, 30° C., lower % = stronger binding
Summary of the method: (§1)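 Probe displacement was measured at 30 °C in 1 mM phosphate pH 7.4 containing SybrSafe (12500-fold dilution), 3.76 ng/mL nucleic acid (salmon dsDNA or polyAU dsRNA) and 20 μM compound. Fluorescence loss is normalised between probe-only and probe-plus-nucleic-acid controls.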

[6] = tested on: PolyAU double stranded RNA; experiment: as above; conditions: 20 μM compound, 30° C., lower % = stronger binding
Summary of the method: as §1

[7] = tested on: C. neoformans (F10025); conditions: Cryptococcus neoformans, read-out: MIC99 C. neoformans
[8] = tested on: A. fumigatus A1160 (MFIG001); conditions: Aspergillus fumigatus, read-out: MIC99 A. fumigatus A1160
[9] = tested on: Rhizopus arrhizus (NEQAS12.35321); conditions: read-out: MIC99 Rhizopus arrhizus
[10] = tested on: Candida auris (H.17.157); conditions: for MIC99: Candidozyma auris, read-out: MIC99 Candida auris; for C. auris Selectivity Indices, Group: SI, IC50 (μM)/MIC99 (μg/mL), HEK293 cytotoxicity, Alkyl Amidines and NH Pyrroles
[11] = tested on: Candida glabrata (ACPF3309); conditions: for MIC99: Nakaseomyces glabratus, read-out: MIC99 Candida glabrata; for C. glabrata Selectivity Indices, Group: SI, IC50 (μM)/MIC99 (μg/mL), HEK293 cytotoxicity, Alkyl Amidines and NH Pyrroles
[12] = tested on: SARS-CoV-2 (hCoV-19/Australia/VIC01/2020); experiment: SARS-CoV-2 microplaque inhibition assay in Vero-E6 cells; type: cell-based; conditions: for SARS-CoV-2 Selectivity Indices, Group: SI, IC50 (μM)/IC50 (μM), HEK293 cytotoxicity, Alkyl Amidines and NH Pyrroles
[13] = SI, IC50 (μM)/MIC80 (μM), HEK293 cytotoxicity, Alkyl Amidines and NH Pyrroles
[14] = SI, IC50 (μM)/IC50 (μM), HEK293 cytotoxicity, Alkyl Amidines and NH Pyrroles

| Compound | MIC80 [1] | E. faecalis Selectivity Indices, Group [2, 13] | MIC80 [3] | T. vaginalis Selectivity Indices, Group [4, 14] | % Normalised Fluorescence with gDNA [5] | % Normalised Fluorescence with polyAU RNA [6] | MIC99 [7] | MIC99 [8] | MIC99 [9] | MIC99 [10] | MIC99 [11] | S. aureus Selectivity Indices, Group ([1]; Alkyl Amidines and NH Pyrroles) | MIC80 [2] | IC50 [4] | also measured |
| --- | --- | --- | --- | --- | --- | --- | --- | --- | --- | --- | --- | --- | --- | --- | --- |
| CCNC(=N)CCNC(=O)c1cc(NC(=O)c2cc(NC(=O)c3ccc(/C=C/c4ccc(OC)cc4)nc3)cn2C)cn1C [Ia24, (E)-N-(5-((5-((3-(ethylamino)-3-iminopropyl)carbamoyl)-1-methyl-1H-pyrrol-3-yl)carbamoyl)-1-methyl-1H-pyrrol-3-yl)-6-(4-methoxystyryl)nicotinamide] | < 5 µM | C (Group C: 5 < SI <= 10) | > 100 µM | D (Group D: SI > 32) | 1% | 4% | 5 to 25 µg/mL (≈ 8.38 to 41.9 µM) | 25 to 50 µg/mL (≈ 41.9 to 83.8 µM) | > 50 µg/mL | > 50 µg/mL | 5 to 25 µg/mL (≈ 8.38 to 41.9 µM) |  |  |  | T. vaginalis Selectivity Index (SI) ([4]; SI, IC50 (μM)/IC50 (μM), HEK293 cytotoxicity, numeric value): 69 |
| [H]/N=C(\CCNC(=O)c1cc(NC(=O)c2cc(NC(=O)c3ccc(C=Cc4ccc(N(C)C)cc4)nc3)cn2C)cn1C)NCCCCCCCCC [Ia32, (E)-6-(4-(dimethylamino)styryl)-N-(5-((5-((3-imino-3-(nonylamino)propyl)carbamoyl)-1-methyl-1H-pyrrol-3-yl)carbamoyl)-1-methyl-1H-pyrrol-3-yl)nicotinamide] | < 5 µM |  | > 100 µM |  | 67% | 23% | 5 to 25 µg/mL (≈ 7.06 to 35.3 µM) | > 50 µg/mL | > 50 µg/mL | > 50 µg/mL | 5 to 25 µg/mL (≈ 7.06 to 35.3 µM) | C (Group C: 5 < SI <= 10) | > 100 µM | > 50000 nM |  |
| CCCCNC(=N)CCNC(=O)c1cc(NC(=O)c2cc(NC(=O)c3ccc(/C=C/c4cnc5ccccc5c4)cc3)cn2C)cn1C [Ia34, (E)-N-(3-(butylamino)-3-iminopropyl)-1-methyl-4-(1-methyl-4-(4-(2-(quinolin-3-yl)vinyl)benzamido)-1H-pyrrole-2-carboxamido)-1H-pyrrole-2-carboxamide] | < 5 µM |  | > 100 µM |  | 7% | 6% | 25 to 50 µg/mL (≈ 38.8 to 77.5 µM) | > 50 µg/mL | > 50 µg/mL | > 50 µg/mL | 5 to 25 µg/mL (≈ 7.75 to 38.8 µM) | D (D: SI > 10) | 5 to 25 µM (≈ 3.22 to 16.1 µg/mL) | 1000 to 5000 nM | S. aureus Selectivity Index (SI) [1]: 15 |
| CCCCCNC(=N)CCNC(=O)c1cc(NC(=O)c2cc(NC(=O)c3ccc(/C=C/c4cnc5ccccc5c4)cc3)cn2C)cn1C [Ia35, (E)-N-(3-imino-3-(pentylamino)propyl)-1-methyl-4-(1-methyl-4-(4-(2-(quinolin-3-yl)vinyl)benzamido)-1H-pyrrole-2-carboxamido)-1H-pyrrole-2-carboxamide] | < 5 µM |  | > 100 µM |  | 21% | 3% | 25 to 50 µg/mL (≈ 37.9 to 75.9 µM) | > 50 µg/mL | > 50 µg/mL | > 50 µg/mL | 5 to 25 µg/mL (≈ 7.59 to 37.9 µM) |  | 5 to 25 µM (≈ 3.29 to 16.5 µg/mL) | 1000 to 5000 nM |  |
| Cn1cc(NC(=O)c2cc(NC(=O)c3ccc(/C=C/c4cnc5ccccc5c4)cc3)cn2C)cc1C(=O)NCCC(=N)N1CCCCC1 [Ib1, (E)-N-(3-imino-3-(piperidin-1-yl)propyl)-1-methyl-4-(1-methyl-4-(4-(2-(quinolin-3-yl)vinyl)benzamido)-1H-pyrrole-2-carboxamido)-1H-pyrrole-2-carboxamide] | < 5 µM |  | > 100 µM |  | 23% | 12% | 5 to 25 µg/mL (≈ 7.61 to 38.1 µM) | 5 to 25 µg/mL (≈ 7.61 to 38.1 µM) | 25 to 50 µg/mL (≈ 38.1 to 76.1 µM) | > 50 µg/mL | < 5 µg/mL | D (D: SI > 10) | < 5 µM |  | S. aureus Selectivity Index (SI) [1]: 11; IC50 ([4]; resorufin assay): 1000 to 5000 nM |
| [H]/N=C(\CCNC(=O)c1cc(NC(=O)c2cc(NC(=O)c3ccc(C=Cc4ccc5nonc5c4)cc3)cn2C)cn1C)N1CCCCC1 [Ib2, (E)-4-(4-(2-(benzo[c][1,2,5]oxadiazol-5-yl)vinyl)benzamido)-N-(5-((3-imino-3-(piperidin-1-yl)propyl)carbamoyl)-1-methyl-1H-pyrrol-3-yl)-1-methyl-1H-pyrrole-2-carboxamide] | < 5 µM |  | > 100 µM |  | 12% | 3% | 5 to 25 µg/mL (≈ 7.72 to 38.6 µM) | 5 to 25 µg/mL (≈ 7.72 to 38.6 µM) | 5 to 25 µg/mL (≈ 7.72 to 38.6 µM) | > 50 µg/mL | < 5 µg/mL |  | < 5 µM | < 1000 nM |  |
| [H]/N=C(\CCNC(=O)c1cc(NC(=O)c2cc(NC(=O)c3ccc(C=Cc4ccc5nonc5c4)cc3)cn2C)cn1C)N1CCSCC1 [Ib8, (E)-4-(4-(2-(benzo[c][1,2,5]oxadiazol-5-yl)vinyl)benzamido)-N-(5-((3-imino-3-thiomorpholinopropyl)carbamoyl)-1-methyl-1H-pyrrol-3-yl)-1-methyl-1H-pyrrole-2-carboxamide] | < 5 µM |  | > 100 µM |  | 15% | 4% | 5 to 25 µg/mL (≈ 7.51 to 37.5 µM) | 5 to 25 µg/mL (≈ 7.51 to 37.5 µM) | 5 to 25 µg/mL (≈ 7.51 to 37.5 µM) |  | < 5 µg/mL |  | < 5 µM | 1000 to 5000 nM |  |
| COCCOCC[N+](C)(C)CCNC(=O)c1cc(NC(=O)c2cc(NC(=O)c3ccc(/C=C/c4cnc5ccccc5c4)cc3)cn2C)cn1C [Ic18, (E)-2-(2-methoxyethoxy)-N,N-dimethyl-N-(2-(1-methyl-4-(1-methyl-4-(4-(2-(quinolin-3-yl)vinyl)benzamido)-1H-pyrrole-2-carboxamido)-1H-pyrrole-2-carboxamido)ethyl)ethan-1-aminium] | < 5 µM |  | > 100 µM |  |  |  | 5 to 25 µg/mL | > 50 µg/mL | 25 to 50 µg/mL | > 50 µg/mL | < 5 µg/mL |  | < 5 µM | 1000 to 5000 nM | S. aureus Selectivity Indices, Group ([1]; Quaternary ammoniums): C (Group C: 5 < SI <= 10); E. faecalis Selectivity Indices, Group ([2]; SI, IC50 (μM)/MIC80 (μM), HEK293 cytotoxicity, Quaternary ammoniums): D (Group D: SI > 5); E. faecalis Selectivity Index (SI) ([2]; SI, IC50 (μM)/MIC80 (μM), HEK293 cytotoxicity, numeric value): 5.1; T. vaginalis Selectivity Indices, Group ([4]; SI, IC50 (μM)/IC50 (μM), HEK293 cytotoxicity, Quaternary ammoniums): C (Group C: 1.5 < SI <= 3) |
| COc1cccc(/C=C/c2ccc(C(=O)Nc3cc(C(=O)Nc4cc(C(=O)NCCN5CCOCC5)n(C)c4)n(C)c3)cc2)c1 [Ref-1, reference compound] |  | A (Group A: SI < 3) |  | A (Group A: SI < 8) |  |  |  |  |  |  |  | A (Group A: SI < 3) |  |  | SARS-CoV-2 Selectivity Indices, Group [12]: A (Group A: SI < 4.1); C. auris Selectivity Indices, Group [10]: A (Group A: SI < 0.4); C. glabrata Selectivity Indices, Group [11]: A (Group A: SI < 12) |
| COc1ccc(/C=C/c2ccc(C(=O)Nc3cc(C(=O)Nc4cc(C(=O)NCCN5CCOCC5)n(C)c4)n(C)c3)cn2)cc1 [Ref-2, reference compound] |  | A (Group A: SI < 3) |  | A (Group A: SI < 8) |  |  |  |  |  |  |  | A (Group A: SI < 3) |  |  | SARS-CoV-2 Selectivity Indices, Group [12]: A (Group A: SI < 4.1); C. auris Selectivity Indices, Group [10]: A (Group A: SI < 0.4); C. glabrata Selectivity Indices, Group [11]: A (Group A: SI < 12) |
| COc1cccc(/C=C/c2ccc(C(=O)Nc3cc(C(=O)Nc4cc(C(=O)NCCC(=N)N)n(C)c4)n(C)c3)cc2)c1 [Ref-5, reference compound] |  | A (Group A: SI < 3) |  | A (Group A: SI < 8) |  |  |  |  |  |  |  | A (Group A: SI < 3) |  |  | SARS-CoV-2 Selectivity Indices, Group [12]: A (Group A: SI < 4.1); C. glabrata Selectivity Indices, Group [11]: A (Group A: SI < 12) |
| CCN(CC)CCCC(C)Nc1ccnc2cc(Cl)ccc12 (centres unmarked) [chloroquine diphosphate, reference compound] |  |  |  |  |  |  |  |  |  |  |  |  |  |  | IC50 ([12]; Severe acute respiratory syndrome coronavirus 2, Vero C1008, read-out: IC50 SARS-CoV-2 infectious viral foci): 641 nM |
